Test results as given in PMC12063173, “Metabolic Profiling of a Mediterranean-Inspired (Poly)phenol-Rich Mixture in the Brain: Perfusion Effect and In Vitro Blood–Brain Barrier Transport Validation” (Journal of Agricultural and Food Chemistry, 2025).
Entries after “also recorded” stand apart in the source; their conditions may differ. Counter-ions that a name gives are not always drawn. Like-named read-outs stand apart in the source and are kept apart here.

Legend:
[1] = Nonperfused brain (NPB) kinetics of phenolic metabolites after oral capsule; type: in vivo, Sprague–Dawley rats; set-up: AUC0-t NPB: concentration or dose not given beside the values; details: nonperfused brain, oral capsule, 0-24 h, n = 3 per time point
Source text: (§1) Statistical analyses were applied depending on the experimental context.

[2] = Perfused brain (PB) kinetics of phenolic metabolites after oral capsule; type: in vivo, Sprague–Dawley rats; set-up: AUC0-t PB: concentration or dose not given beside the values; details: for Tmax: male, Sprague-Dawley, rat, 22 mg extract blend per capsule, one capsule per animal; for Tmax / AUC0-t PB / Cmax PB / MRT0-t PB / T1/2 PB / Tmax PB: oral capsule, 0-24 h, n = 3 per time point; for PB versus NPB comparison: perfused versus nonperfused brain
Source text: as §1

[3] = Targeted metabolomics (UPLC-ESI-QTOF) identification of metabolites in plasma, PB and NPB; details: P plasma, PB perfused brain, NPB nonperfused brain, 1-24 h after oral capsule
Procedure: Adult male Sprague–Dawley rats weighing 250–300 g were purchased from the Animal Experimentation Service of the University of Murcia (Murcia, Spain). […] Based on the experimental design shown in Figure 1, one capsule was administered by gavage to each fasting animal. A total of 40 animals were used in the study. Thirty animals received a capsule containing a mixture of different Mediterranean food extracts, while ten animals received a capsule with microcrystalline cellulose and served as the control group. […] To minimize animal use in accordance with the 3Rs principle, two control animals were sacrificed at each time point (one PB and one NPB). These controls served to identify potential endogenous compounds or background signals not related to the extract administration. All animals were fasted overnight prior to gavage and euthanized with carbon dioxide.
Plasma samples were extracted with ACN:formic acid (98:2, v/v), centrifuged and evaporated in a speed vacuum concentrator (Savant SPD14 0DDA). The evaporated samples were resuspended in 100 μL MeOH and filtered through 0.22 μm regenerated cellulose filters (Minisart Sartorius, Madrid, Spain). Next, half of the animals at each time point were perfused with ice-cold phosphate-buffered saline, and the blood-free brain was dissected out immediately and stored at – 80 °C until analysis, as previously reported.[37],[48]
Approximately 400 mg of brain tissue (perfused or nonperfused) was weighed and extensively washed with cold PBS to avoid external blood contamination. After weighting, the samples were placed in 2 mL screw cap tubes. […] The evaporated samples were resuspended in 100 μL MeOH and filtered through 0.22 μm regenerated cellulose filters.
We performed a targeted metabolomic analysis using an ultrahigh-performance liquid chromatographic system (UPLC) coupled to a quadrupole-time-of-flight (QTOF) mass spectrometer. The phenolic compounds were separated using an Agilent Poroshell 120 column (100 mm × 3 mm, 2.7 μm) and a 5 μL injection volume. […] The flow rate was set constant at 0.4 mL/min. The spectra were acquired in the m/z range from 100 to 1100, in negative polarity mode and an acquisition rate of 1.5 spectra per second. Quantitative data were processed using the Mass HunterQualitative Analysis software (version B.08.00, Agilent). A target screening strategy was applied for the qualitative analysis of possible metabolites derived from the consumption of the Mediterranean blend. […] These compounds encompass derived metabolites conjugated (glucuronides, sulfates, and sulfoglucuronides, among others). The exact mass of the proposed compound was extracted using an extraction window of 0.01 m/z. Metabolite quantification was performed by integrating the peak areas of their extracted ion chromatograms (EICs). Compounds with available standards were quantified using calibration curves derived from the respective standards, while other metabolites were semiquantified based on their peak area values.

[4] = Plasma pharmacokinetics of phenolic metabolites after oral capsule of (poly)phenol-rich Mediterranean extract mixture; details: for AUC0-t plasma / MRT0-t plasma / T1/2 plasma / Tmax plasma: oral capsule, 0-24 h, n = 6 per time point
Procedure: Adult male Sprague–Dawley rats weighing 250–300 g were purchased from the Animal Experimentation Service of the University of Murcia (Murcia, Spain). […] Animals were maintained in a temperature-controlled environment with a 12 h light-dark cycle. […] Based on the experimental design shown in Figure 1, one capsule was administered by gavage to each fasting animal. A total of 40 animals were used in the study. Thirty animals received a capsule containing a mixture of different Mediterranean food extracts, while ten animals received a capsule with microcrystalline cellulose and served as the control group. At each time point (1, 3, 6, 8, and 24 h postadministration), six animals from the extract group were sacrificed, three with transcardial perfusion using saline (PB) and three without perfusion (NPB), to assess the distribution of extract-derived metabolites in plasma and brain. To minimize animal use in accordance with the 3Rs principle, two control animals were sacrificed at each time point (one PB and one NPB). […] All animals were fasted overnight prior to gavage and euthanized with carbon dioxide.
Blood samples collected by cardiac puncture in sodium heparin tubes at each time point after sacrifice were immediately centrifuged at 14,000 × g for 15 min at 4 °C, and the plasma was stored at −80 °C until their analysis. Plasma samples were extracted with ACN:formic acid (98:2, v/v), centrifuged and evaporated in a speed vacuum concentrator (Savant SPD14 0DDA). The evaporated samples were resuspended in 100 μL MeOH and filtered through 0.22 μm regenerated cellulose filters (Minisart Sartorius, Madrid, Spain).
We performed a targeted metabolomic analysis using an ultrahigh-performance liquid chromatographic system (UPLC) coupled to a quadrupole-time-of-flight (QTOF) mass spectrometer. The phenolic compounds were separated using an Agilent Poroshell 120 column (100 mm × 3 mm, 2.7 μm) and a 5 μL injection volume. The mobile phases used were 0.1% formic acid in water (A) and 0.1% formic acid in ACN (B), and the gradient was: 0–3 min, 5–15% B; 3–11 min, 15–30% B; 11–14 min, 30–50% B, 14–16 min, 50–90% B. Finally, the B content was decreased to the initial conditions (5%) in 1 min, and the column re-equilibrated for 4 min. The flow rate was set constant at 0.4 mL/min. The spectra were acquired in the m/z range from 100 to 1100, in negative polarity mode and an acquisition rate of 1.5 spectra per second.

[5] = test system: human brain microvascular endothelial cells (HBMECs); experiment: In vitro blood–brain barrier transport (Transwell); type: in vitro ADME; details: 2.5 μM, 2 h
Procedure: The BBB transport model was established using human brain microvascular endothelial cells (HBMECs), following a methodology previously described.[49] Cells were maintained at 37 °C in a humidified environment with 5% CO2. HBMECs were seeded on 12-well Transwell inserts (12 mm, 0.4 μm pore polyester membrane; Corning, Madrid, Spain) and cultured for 6 days to form confluent monolayers suitable for transport studies. Transport assays were carried out in Hanks’ Balanced Salt Solution (HBSS) supplemented with 0.1% fetal bovine serum (FBS, v/v). The cells were exposed on the apical side to individual phenolic metabolites detected in the brain from the animal study, a representative mixture containing equal concentrations of these metabolites, or a physiological mixture reproducing their relative percentages as observed in the brain. All treatments were applied at a final concentration of 2.5 μM for 2 h (Supporting Information, Table S3). The integrity of the cell monolayers was confirmed by measuring transendothelial electrical resistance (TEER) at the start of the experiment (0 h) and after the last time point (2 h) using an EVOM2 Epithelial Volt Ohm Meter (World Precision Instruments, Inc., USA).
Samples from the apical and basolateral compartments were stored at −80 °C for further analysis. Transport of the compounds was evaluated using UPLC-qTOF as described elsewhere,[38] and transendothelial permeability expressed as a percentage of the ratio between the concentration in the basolateral compartment relative to the total concentration in both compartments.
Finally, one-way ANOVA with Tukey’s multiple comparisons test was exclusively applied to in vitro BBB transport experiments. The three tested conditions for each compound (individual compound, a mixture containing equal concentrations of these compounds, or a physiological mixture reproducing their relative percentages as observed in the brain were evaluated. Plots were performed using GraphPad 9.0 (GraphPad Software, Boston, Massachusetts, USA). Statistical significance was set at P < 0.05.
Figure 3 Transport efficiency of phenolic metabolites across the BBB. Human brain microvascular endothelial cells (HBMEC) were seeded onto semipermeable membranes. […] Detailed composition of both mixtures is given in the Supporting Information, Table S3. Media from the upper and lower compartments were collected, and endothelial transport was evaluated by UPLC-qTOF-MS. The transport percentage (%) was determined by the concentration ratio in the lower compartment to the total concentration (upper and lower compartments). All values are presented as mean ± SD from three independent experiments.

[6] = male, Sprague-Dawley, rat, 22 mg extract blend per capsule, one capsule per animal
[7] = male, Sprague-Dawley, rat, po, 22 mg extract blend per capsule, one capsule per animal
[8] = read-out: Cmax plasma, oral capsule, 0-24 h, n = 6 per time point

AUC0-t NPB [1] | Cmax NPB [1] | AUC0-t PB ([2]; perfused brain) | Cmax PB ([2]; perfused brain) | Tmax NPB [1] | Tmax PB ([2]; perfused brain) | AUC0-t plasma [4] | MRT0-t plasma [4] | T1/2 plasma [4] | Tmax plasma [4] | Cmax [4, 8] | Molecule | occurrence [3] | also measured
60 ± 8.4 pmol·h/g | 9.7 ± 5.7 pmol/g tissue | 16 ± 7.8 pmol·h/g | 3.4 ± 3.1 pmol/g tissue | 3.0 ± 0.0 h | 2.7 ± 2.9 h | 1.432 ± 0.648 µM·h | 4.3 ± 1.0 h | 4.0 ± 2.3 h | 1.4 ± 0.9 h | 303 ± 45 nM | O=S(=O)(O)Oc1cc(CCO)ccc1O [hydroxytyrosol 3-O-sulfate] | PB, NPB, P | MRT0-t NPB [1]: 7.1 ± 3.1 h; T1/2 NPB [1]: 7.0 ± 0.7 h; MRT0-t PB ([2]; perfused brain): 11 ± 5.9 h; T1/2 PB ([2]; perfused brain): 7.3 ± 3.6 h; occurrence ([3]; listed as hydroxytyrosol 3-sulfate): identified in plasma, perfused brain (PB), and nonperfused brain (NPB)
1.6 ± 0.6 pmol·h/g | 0.2 ± 0.1 pmol/g tissue | – | 2.8 ± 2.4 pmol/g tissue | 3.0 ± 0.0 h | 19 ± 12 h | 0.293 ± 0.154 µM·h | 45 ± 37 h | 33 ± 28 h | 3.6 ± 2.6 h | 44 ± 47 nM | O=C(O)C=Cc1ccc(OS(=O)(=O)O)cc1 [p-coumaric acid 4-O-sulfate] | PB, NPB, P | PB concentration relative to ferulic acid 4-O-sulfate ([2]; perfused brain): 14 fold; MRT0-t PB ([2]; perfused brain): 30 ± 20 h; T1/2 PB ([2]; perfused brain): 23.85 h; transport percentage, individual compounds ([5]; HBMEC monolayer, lower compartment / total concentration): exceeding 20%; transport efficiency in both mixtures and as individual molecules ([5]; HBMEC): relatively consistent transport efficiencies
84 ± 22 pmol·h/g | 6.3 ± 2.6 pmol/g tissue | 52 ± 30 pmol·h/g | 4.8 ± 1.5 pmol/g tissue | 2.3 ± 1.2 h | 2.3 ± 2.5 h | 0.793 ± 0.403 µM·h | 3.4 ± 0.5 h | 3.0 ± 0.6 h | 1 ± 0 h | 192 ± 76 nM | O=S(=O)(O)Oc1ccc(CCO)cc1O [hydroxytyrosol 4′-O-sulfate] | PB, NPB, P | MRT0-t NPB [1]: 26 ± 22 h; T1/2 NPB [1]: 18 ± 14 h; MRT0-t PB ([2]; perfused brain): 18 ± 14 h; T1/2 PB ([2]; perfused brain): 12 ± 8.9 h; occurrence ([3]; listed as hydroxytyrosol 4′-sulfate): identified in plasma, perfused brain (PB), and nonperfused brain (NPB)
– | – | – | – | – | – | 0.011 ± 0.0013 µM·h | 23.48 h | 14.80 h | 5.7 ± 2.7 h | 2.7 ± 0.9 nM | COc1ccc(C2CC(=O)c3c(O)cc(O)cc3O2)cc1O[C@@H]1O[C@H](C(=O)O)[C@@H](O)[C@H](O)[C@H]1O (stereo partly shown) [hesperetin 3′-O-glucuronide] | no detectable levels in PB or NPB | –
– | – | – | – | – | – | 0.077 ± 0.031 µM·h | 9.0 ± 2.5 h | 6.0 ± 1.6 h | 4.5 ± 1.7 h | 9.6 ± 4.5 nM | O=C(O)CCc1ccc(O)c(OS(=O)(=O)O)c1 [dihydrocaffeic acid 3-O-sulfate] | exclusively detected in plasma | –
– | – | – | – | – | – | 0.036 ± 0.012 µM·h | 11 ± 5.8 h | 7.4 ± 3.4 h | 4.2 ± 2.8 h | 4 ± 0.7 nM | COc1ccc([C@@H]2CC(=O)c3c(O)cc(O[C@@H]4O[C@H](C(=O)O)[C@@H](O)[C@H](O)[C@H]4O)cc3O2)cc1O [hesperetin 7-O-glucuronide] | no detectable levels in PB or NPB | –

The remaining lines, values behind:

Molecule | AUC0-t NPB [1] | Cmax NPB [1] | AUC0-t PB ([2]; perfused brain) | Cmax PB ([2]; perfused brain) | Tmax NPB [1] | Tmax PB ([2]; perfused brain) | AUC0-t plasma [4] | MRT0-t plasma [4] | T1/2 plasma [4] | Tmax plasma [4] | Cmax [4, 8] | occurrence [3] | also measured
O=C(O)c1ccc(O)cc1O [2,4-dihydroxybenzoic acid] | 92 ± 31 pmol·h/g | 10 ± 1.2 pmol/g tissue | 44 ± 17 pmol·h/g | 4.3 ± 2.8 pmol/g tissue | – | – | – | – | – | – | – | consistently detected in plasma and brain at all time points; also recorded: PB, NPB, P | Tmax [1, 6]: 14 ± 15 h; MRT last ([1]; male, Sprague-Dawley, rat, 22 mg extract blend per capsule, one capsule per animal, read-out: MRT0-t NPB): 7.9 ± 1.1 h; half-life ([1]; male, Sprague-Dawley, rat, 22 mg extract blend per capsule, one capsule per animal, read-out: T1/2 NPB (converted)): 5.4 ± 3.6 h; Tmax ([2]; perfused brain): 10 ± 12 h; PB versus NPB comparison [2]: significantly lower AUC values in PB compared to NPB; concentration in plasma (approximate) [4]: around 500 nM; AUC(0-t) [4, 7]: 6.42 ± 1.92 µM·h; Cmax [4, 7]: 534 ± 211 nM; MRT last [4, 7]: 22 ± 11 h; Tmax [4, 7]: 12 ± 11 h; half-life [4, 7]: 14 ± 6 h
hydroxyphenyl propionic acid sulfate [hydroxyphenyl propionic acid sulfate peak-1] | – | – | – | – | – | – | – | – | – | – | – | PB, NPB, P | –
COc1cc(CCO)ccc1OS(=O)(=O)O [homovanillic alcohol sulfate] | – | – | – | – | – | – | – | – | – | – | – | PB, NPB, P | PB versus NPB comparison [2]: higher concentrations in PB
COc1cc(/C=C/C(=O)O)ccc1OS(=O)(=O)O [ferulic acid 4-O-sulfate] | 4.8 ± 2.6 pmol·h/g | 0.3 ± 0.2 pmol/g tissue | 3.0 ± 0.5 pmol·h/g | 0.2 ± 0.1 pmol/g tissue | 1.0 ± 0.0 h | 12 ± 11 h | 1.114 ± 0.459 µM·h | 14 ± 5.1 h | 12 ± 6.3 h | 4.2 ± 1.6 h | 129 ± 107 nM | PB, NPB, P | PB versus NPB comparison [2]: significantly lower AUC values in PB compared to NPB; plasma concentration relative to p-coumaric acid 4-O-sulfate [4]: approximately 3 fold
O=C1CCC(Cc2ccc(O)c(OS(=O)(=O)O)c2)O1 (stereo not shown) [5-(3,4-dihydroxyphenylvalerolactone) sulfate] | – | – | – | – | – | – | 0.113 ± 0.078 µM·h | 31 ± 44 h | 19 ± 29 h | 4.5 ± 1.7 h | 12.1 ± 5 nM | undetectable in both PB and NPB | occurrence ([3]; listed as 5-(3,4-dihydroxyphenyl)valerolactone sulfate): exclusively detected in plasma
O=C(O)CCc1ccccc1O [3-(2-hydroxyphenyl) propionic acid] | 1.1 ± 0.8 pmol·h/g | 0.3 ± 0.04 pmol/g tissue | 1.8 ± 2.2 pmol·h/g | 0.6 ± 0.5 pmol/g tissue | – | – | – | – | – | – | – | PB, NPB, P | Tmax [1, 6]: 3.3 ± 4 h; Tmax ([2]; perfused brain): 9 ± 1.4 h; occurrence ([3]; listed as 3-(2-hydroxyphenyl)propionic acid): consistently detected in plasma and brain at all time points; AUC(0-t) [4, 7]: 0.213 ± 0.053 µM·h; Cmax [4, 7]: 20 ± 11 nM; MRT last [4, 7]: 8.89 h; Tmax [4, 7]: 10 h; half-life [4, 7]: 8.26 h
O=S(=O)(O)Oc1ccc(CCO)cc1 [tyrosol 4-O-sulfate] | 31 ± 43 pmol·h/g | 4.7 ± 6.1 pmol/g tissue | 0.9 ± 1.3 pmol·h/g | 0.1 ± 0.08 pmol/g tissue | 2.0 ± 1.4 h | 2.3 ± 3.2 h | 0.122 ± 0.116 µM·h | 7.15 ± 3.3 h | 6.5 ± 1.8 h | 1 ± 0 h | 20 ± 30 nM | PB, NPB, P | MRT0-t NPB [1]: 7.4 ± 0.4 h; T1/2 NPB [1]: 4.5 ± 1.1 h; occurrence ([3]; listed as tyrosol 4-sulfate): identified in plasma, perfused brain (PB), and nonperfused brain (NPB)
hydroxyphenylacetic acid sulfate | – | – | – | – | – | – | – | – | – | – | – | PB, NPB, P | –
COc1ccc(CCC(=O)O)cc1O [3-(3′-hydroxy-4′-methoxyphenyl)propionic acid)] | – | – | – | – | – | – | – | – | – | – | – | PB, NPB, P | PB versus NPB comparison [2]: higher concentrations in PB
